# From paper PMC6268528, “3-Phenylcoumarins as Inhibitors of HIV-1 Replication” (Molecules, 2012)
# Read-outs that look alike come from different tables or passages of the source.
# Key:
# non-infected MT-2 cells [1] = test: Cell viability, MTT assay in non-infected treated cultures; type: cell-based; parameters: Toxicity (%) CC50: unit not given here
# Description: (§1) The anti-HIV activity of these coumarins on Tat and NF-κB functions has been analysed. To this aim, we have used two stably transfected cell lines. The previously described 5.1 cell line is a Jurkat-derived clone stably transfected with a plasmid containing the luciferase gene under the control of HIV-LTR. In this cell clone, activation with TNFα induces NF-κB activation and subsequent HIV-1 expression. We have also analyzed the anti-HIV activity in HeLa-Tat-Luc cells, in which the HIV-1 LTR is directly activated by the HIV-1 Tat protein. A compound was considered active in one assay if it inhibited the target function by more than 50% (NF-κB) or 30% (Tat) at either 25 or 50 μM concentration. The active compounds were submitted for further evaluation through a HeLa-Tet-ON assay, as previously described. In the Hela-Tet-ON cells the luciferase expression is under control of an artificial promoter that can be activated by tetracycline. Therefore, compounds that inhibit tetracycline-induced luciferase activity were considered non-specific for luciferase-based anti-HIV assays and were not examined further, and those showing specific activity (non-inhibitors in HeLa-Tet-ON cells) were analysed using a recombinant virus (RV) assay. […] In this system, a luciferase reporter gene has been cloned in full-length infectious DNA. The measured luciferase activity is therefore directly proportional to the replication of the virus. This assay is more sensitive and reliable than classic infectious assays. Cell viability was evaluated in non-infected treated cultures following the same protocol as in the recombinant virus assay and measuring cell toxicity with a classical MTT assay. IC50 and CC50 were calculated using GraphPad Prism software [non-linear regression, log (inhibitor) vs. response].
# NF-κB [2] = test: 5.1 cell line + TNFα, HIV-LTR luciferase (NF-κB activation); type: cell-based; conditions: for inhibition at 50 µM: read-out: Antiviral activity 5.1 + TNFα 50 µM (inhibition of NF-κB function); for specificity of NF-κB inhibition, in words: with HeLa-Tet-ON evaluation; for inhibition at 25 µM: read-out: Antiviral activity 5.1 + TNFα 25 µM (inhibition of NF-κB function)
# Description: (§2) In the characterization of anti-HIV activity, the effect of these coumarins on Tat and NF-κB functions has been evaluated in a similar manner as we described in a previous publication. We have used two transfected 5.1 cell lines, in which we measured NF-κB activation induced by TNFα [42] and HeLa-Tat-Luc cells, in which the HIV-1 LTR is directly activated by the HIV-1 Tat protein. Most of the compounds were submitted for further evaluation through a HeLa-Tet-ON assay in order to determine the selectivity of their action. To avoid missing compounds acting through another mechanism, all substances were also evaluated using a recombinant virus (RV) assay. In this system, a luciferase reporter gene was cloned in full-length infectious DNA. As a result, the measured luciferase activity is therefore proportional to viral replication.
# as §1
# HIV-1 Tat protein [3] = test: HeLa-Tat-Luc cells, HIV-1 LTR activated by Tat; type: cell-based; conditions: for inhibition at 25 µM: Human immunodeficiency virus 1, read-out: Antiviral activity Hela-Tat-luc 25 µM (inhibition of Tat function); for inhibition at 50 µM: Human immunodeficiency virus 1, read-out: Antiviral activity Hela-Tat-luc 50 µM (inhibition of Tat function); for anti-Tat activity and specificity, in words: HeLa-Tat-Luc and Hela-Tet-ON assays
# Description: as §2, §1
# HIV-1 [4] = test: Recombinant virus (RV) assay, luciferase reporter virus on MT-2 cells; type: cell-based; conditions: for rank as inhibitor of HIV replication, in words: RV assay; for fold lesser potent than 11 in the RV assay: relative to compound 11
# Description: We have synthesized fourteen 3-phenylcoumarin derivatives and evaluated their anti-HIV activity. Antiviral activity was assessed on MT-2 cells infected with viral clones carrying the luciferase gene as reporter. Inhibition of HIV transcription and Tat function were tested on cells stably transfected with the HIV-LTR and Tat protein. […] The antiviral effect of the 4-hydroxycoumarin derivative 19 correlates with its specific inhibition of Tat functions, while compound 8, 3-(2-chlorophenyl)coumarin, seems to act through a mechanism unrelated to the molecular targets considered in this research.
# as §2, §1
# [5] = test system: tetracycline-induced luciferase activity in HeLa-Tet-ON cells; test: HeLa-Tet-ON specificity assay; type: cell-based; parameters: key: S: specific; U: unspecific modes of action
# Description: as §2, §1
# HIV-1 [6] = test system: HIV-1; parameters: method as in PMID 15911030; conditions: comparison data; read-out: RV (VIH) IC50; cited from earlier work
# NF-κB [7] = test system: NF-κB; parameters: method as in PMID 15911030; conditions: comparison data, cited from earlier work
# non-infected MT-2 cells [8] = test system: non-infected MT-2 cells; parameters: method as in PMID 15911030; conditions: comparison data; read-out: Toxicity CC50; cited from earlier work
# HIV-1 Tat protein [9] = test system: HIV-1 Tat protein; parameters: method as in PMID 15911030; conditions: comparison data; cited from earlier work
# [10] = test system: tetracycline-induced luciferase activity in HeLa-Tet-ON cells; parameters: method as in PMID 15911030; key: S: specific; U: unspecific modes of action; conditions: comparison data; cited from earlier work
# [11] = Human immunodeficiency virus 1, MT2, read-out: RV (VIH) IC50
SMILES,"Toxicity (%) CC50 (non-infected MT-2 cells [1]; MTT, non-infected cultures)",melting point,"inhibitory activity in the NF-κB test, in words (NF-κB [2]; 50 µM)",inhibition at 50 µM (NF-κB [2]),inhibition at 25 µM (HIV-1 Tat protein [3]),inhibition at 50 µM (HIV-1 Tat protein [3]),IC50 (HIV-1 [4]; [11]),HeLa-Tet-ON 50 µM (specific / unspecific mode of action) [5],other results
"COc1cc(-c2cc3ccccc3oc2=O)cc(OC)c1OC [Compound 15, 3-(3,4,5-Trimethoxyphenyl)-2H-chromen-2-one]",42.8 ± 16.2,122 to 124 °C,fair inhibitory activity,49.7 ± 7%,47.6 ± 6.2%,35.1 ± 3.9%,62.7 ± 13.1 µM,U,"specificity of NF-κB inhibition, in words (NF-κB [2]): unspecific"
"Cc1cn([C@H]2C[C@H](N=[N+]=[N-])[C@@H](CO)O2)c(=O)[nH]c1=O [AZT, reference compound]",–,–,–,–,–,–,–,–,"CC50 (non-infected MT-2 cells [1]; comparison drug, read-out: Toxicity CC50): > 1000 nM; IC50 (HIV-1 [4]; recombinant virus, luciferase, read-out: RV (VIH) IC50): 0.01 µM"
"COc1ccc2oc(=O)c(-c3ccccc3)c(O)c2c1 [Compound 18, 4-Hydroxy-6-methoxy-3-phenyl-2H-chromen-2-one]",–,–,–,–,–,22.8 ± 3.4%,186 ± 10.8 µM,S,"Toxicity (%) CC50 (non-infected MT-2 cells [1]; human): >50; inhibition at 50 µM (NF-κB [2]; 50 µM, 5.1 Jurkat-derived cells, TNFα): -3.5 ± 0.9%"
"O=c1oc2ccccc2cc1-c1ccccc1Cl [Compound 8, 3-(2-Chlorophenyl)-2H-chromen-2-one]",>50,186 to 188 °C,–,-28.7 ± 4%,–,17.6 ± 2.1%,20.7 ± 1.9 µM,S,"rank as inhibitor of HIV replication, in words (HIV-1 [4]): second more potent replication inhibitor"
"COc1ccc2c(O)c(-c3ccccc3)c(=O)oc2c1 [Compound 19, 4-Hydroxy-7-methoxy-3-phenyl-2H-chromen-2-one]",>50,217 to 219 °C,–,-4.7 ± 0.3%,48.9 ± 3.4%,55.7 ± 4.9%,23.8 ± 1.7 µM,S,"inhibition at 25 µM (NF-κB [2]): -34.3 ± 5%; anti-Tat activity and specificity, in words (HIV-1 Tat protein [3]): modest, but specific inhibition"
"COc1ccc2c(Cl)c(-c3ccccc3)c(=O)oc2c1 [Compound 20, 4-Chloro-7-methoxy-3-phenyl-2H-chromen-2-one]",18.4 ± 8.2,–,–,-21.2 ± 7%,–,-64.4 ± 10%,> 209 µM,–,–
"O=c1oc2ccccc2cc1-c1ccc2c(c1)OCO2 [Compound 13, 3-(Benzo[d][1,3]dioxol-5-yl)-2H-chromen-2-one]",16.7 ± 3.4,168 to 170 °C,fair inhibitory activity,68.5 ± 3.4%,32.8 ± 4.3%,39.5 ± 2.3%,138 ± 22.3 µM,S,"specificity of NF-κB inhibition, in words (NF-κB [2]): specific inhibitors of the NF-κB function"
"O=c1oc2ccccc2cc1-c1ccc(Cl)cc1Cl [Compound 12, 3-(2,4-Dichlorophenyl)-2H-chromen-2-one]",>50,226 to 228 °C,–,-40.9 ± 2.3%,–,14.1 ± 0.6%,> 172 µM,S,–
"COc1ccc(-c2cc3ccccc3oc2=O)cc1 [Compound 10, 3-(4-Methoxyphenyl)-2H-chromen-2-one]",–,141 to 143 °C,fair inhibitory activity,61.2 ± 2.4%,73.5 ± 6.7%,66.6 ± 3.4%,73 ± 8.6 µM,U,"anti-Tat activity and specificity, in words (HIV-1 Tat protein [3]): potent though unspecific anti-Tat activity; fold lesser potent than 11 in the RV assay (HIV-1 [4]): 4-5 fold"
"CSc1ccc(-c2cc3ccccc3oc2=O)cc1 [Compound 11, 3-(4-Methylsulfanylphenyl)-2H-chromen-2-one]",>50,157 to 159 °C,fair inhibitory activity,81.6 ± 5.6%,77.5 ± 8.5%,80.1 ± 5.6%,18.2 ± 0.2 µM,U,"inhibitory activity in the NF-κB test, in words (NF-κB [2]; 25 μM): confirmed; inhibition at 25 µM (NF-κB [2]): 84.3 ± 3%; anti-Tat activity and specificity, in words (HIV-1 Tat protein [3]): potent though unspecific anti-Tat activity; rank as inhibitor of HIV replication, in words (HIV-1 [4]): most potent inhibitor of HIV replication"
"O=c1oc2ccccc2cc1-c1ccccc1 [Compound 7, 3-Phenyl-2H-chromen-2-one]",>50,–,–,21.7 ± 3%,26.8 ± 2.9%,33.7 ± 1%,130 ± 11.4 µM,S,–
"O=c1oc2ccccc2cc1-c1ccc(Cl)cc1 [Compound 9, 3-(4-Chlorophenyl)-2H-chromen-2-one]",>50,190 to 192 °C,–,33 ± 2.33%,–,-4.9 ± 0.8%,> 195 µM,–,–
CC(C)=CCc1c(O)c(C(=O)C(C)C)c(O)c2c(-c3ccccc3)cc(=O)oc12 [Mesuol],–,–,–,–,–,–,–,–,IC50 (HIV-1 [6]): 2500 nM; Antiviral activity 5.1 + TNFα 25 µM (NF-κB [7]; 25 µM): 71.0 ± 4.8%; Antiviral activity 5.1 + TNFα 50 µM (NF-κB [7]; 50 µM): 77.9 ± 4.9%; CC50 (non-infected MT-2 cells [8]): > 4 µM; Antiviral activity Hela-Tat-luc 50 µM (HIV-1 Tat protein [9]): 71.3 ± 8.9%; HeLa-Tet-ON 50 µM (specific / unspecific) [10]: S
"COc1ccc(-c2cc3cccc(O)c3oc2=O)cc1 [Compound 17, 8-Hydroxy-3-(4-methoxyphenyl)-2H-chromen-2-one]",>50,–,fair inhibitory activity,87.8 ± 9.8%,85.7 ± 3.4%,88.3 ± 5.5%,84.6 ± 12.1 µM,U,"inhibitory activity in the NF-κB test, in words (NF-κB [2]; 25 μM): confirmed; inhibition at 25 µM (NF-κB [2]): 82.2 ± 3.1%; anti-Tat activity and specificity, in words (HIV-1 Tat protein [3]): potent though unspecific anti-Tat activity; fold lesser potent than 11 in the RV assay (HIV-1 [4]): 4-5 fold"
"O=c1oc2cc(O)ccc2cc1-c1ccccc1 [Compound 16, 7-Hydroxy-3-phenyl-2H-chromen-2-one]",>50,–,fair inhibitory activity,59 ± 8.2%,–,17.2 ± 0.5%,81.4 ± 14 µM,S,"specificity of NF-κB inhibition, in words (NF-κB [2]): specific inhibitors of the NF-κB function"
"COc1ccc(-c2cc3ccccc3oc2=O)cc1OC [Compound 14, 3-(3,4-Dimethoxyphenyl)-2H-chromen-2-one]",>50,127 to 129 °C,–,-23 ± 2.9%,–,-25.1 ± 5.3%,> 177 µM,–,–
